Laboratory results published in ChEMBL document CHEMBL3885861, “Open TG-GATES”.

Species: Rattus norvegicus
Assay: Open TG-GATES - Regimen: Single
Type: toxicity, organism-based, Sprague-Dawley
Parameters: regimen Single, gender Male, age 6 weeks
Details: in vivo, ip, 1000 mg/kg, route intraperitoneal injection, dose level High; for APTT / Bas / Eos / Fbg / Hb / Ht / Lym / MCH / MCHC / MCV / Mono / Neu / PT / Plat / RBC / Ret / WBC: tissue Blood; for KIDNEY_L / KIDNEY_R / KIDNEY_TOTAL: tissue Kidney; for LIVER: tissue Liver; for A/G / ALP / ALT / AST / BUN / CRE / Ca / Cl / DBIL / GLC / IP / K / LDH / Na / PL / RALB / TBIL / TC / TG / TP / gamma-GTP: tissue Plasma

Q: Which TERMINAL_BW (3 h) does the source give for `N[C@H]1C(O)O[C@H](CO)[C@@H](O)[C@@H]1O` (some centres not stated) [GLUCOSAMINE] here?
A: 188.7 g

Q: And the APTT (3 h)?
A: 21 s

Q: And the Bas (3 h)?
A: 0.2%

Q: And the Eos (3 h)?
A: 0.8%

Q: What about the Fbg (3 h) of the same compound?
A: 265 mg/dL

Q: And the Hb (3 h)?
A: 12.8 g/dL

Q: What about the Ht (3 h) of the same compound?
A: 39.4%

Q: And the Lym (3 h)?
A: 73.6%

Q: And the MCH (3 h)?
A: 21 pg

Q: What about the MCHC (3 h) of the same compound?
A: 32.4%

Q: And the MCV (3 h)?
A: 64.9 fL

Q: And the Mono (3 h)?
A: 3.4%

Q: And the Neu (3 h)?
A: 21.2%

Q: What about the PT (3 h) of the same compound?
A: 16.7 s

Q: What about the Plat (3 h) of the same compound?
A: 106.7 x10_4/uL

Q: What about the RBC (3 h) of the same compound?
A: 608 x10_4/ul

Q: And the Ret (3 h)?
A: 9.6%

Q: And the WBC (3 h)?
A: 92.4 x10_2/uL

Q: What about the KIDNEY_L (3 h) of the same compound?
A: 0.8 g

Q: And the KIDNEY_R (3 h)?
A: 0.8 g

Q: What about the KIDNEY_TOTAL (3 h) of the same compound?
A: 1.6 g

Q: And the LIVER (3 h)?
A: 8.9 g

Q: And the A/G (3 h)?
A: 0.9

Q: What about the ALP (3 h) of the same compound?
A: 1493 IU/L

Q: And the ALT (3 h)?
A: 50 IU/L

Q: What about the AST (3 h) of the same compound?
A: 92.6 IU/L

Q: What about the BUN (3 h) of the same compound?
A: 12 mg/dL

Q: And the CRE (3 h)?
A: 0.2 mg/dL

Q: What about the Ca (3 h) of the same compound?
A: 10.6 mg/dL

Q: And the Cl (3 h)?
A: 110 meq/L

Q: What about the DBIL (3 h) of the same compound?
A: 0.012 mg/dL

Q: What about the GLC (3 h) of the same compound?
A: 167.2 mg/dL

Q: What about the IP (3 h) of the same compound?
A: 7.1 mg/dL

Q: And the K (3 h)?
A: 3.9 meq/L

Q: What about the LDH (3 h) of the same compound?
A: 93.4 IU/L

Q: What about the Na (3 h) of the same compound?
A: 143.4 meq/L

Q: And the PL (3 h)?
A: 129.4 mg/dL

Q: What about the RALB (3 h) of the same compound?
A: 2.5 g/dL

Q: And the TBIL (3 h)?
A: 0.064 mg/dL

Q: And the TC (3 h)?
A: 71.4 mg/dL

Q: What about the TG (3 h) of the same compound?
A: 25 mg/dL

Q: And the TP (3 h)?
A: 5.2 g/dL

Q: And the gamma-GTP (3 h)?
A: 1 IU/L

Q: And the TERMINAL_BW (6 h)?
A: 187.1 g

Q: What about the APTT (6 h) of the same compound?
A: 18.1 s

Q: What about the Bas (6 h) of the same compound?
A: 0%

Q: And the Eos (6 h)?
A: 0.2%

Q: What about the Fbg (6 h) of the same compound?
A: 246.6 mg/dL

Q: And the Hb (6 h)?
A: 13.4 g/dL

Q: What about the Ht (6 h) of the same compound?
A: 41.5%

Q: And the Lym (6 h)?
A: 62.8%

Q: What about the MCH (6 h) of the same compound?
A: 21 pg

Q: What about the MCHC (6 h) of the same compound?
A: 32.3%

Q: What about the MCV (6 h) of the same compound?
A: 65.1 fL

Q: What about the Mono (6 h) of the same compound?
A: 1.4%

Q: And the Neu (6 h)?
A: 34.4%

Q: What about the PT (6 h) of the same compound?
A: 18.9 s

Q: What about the Plat (6 h) of the same compound?
A: 102.2 x10_4/uL

Q: And the RBC (6 h)?
A: 637.8 x10_4/ul

Q: What about the Ret (6 h) of the same compound?
A: 9%

Q: And the WBC (6 h)?
A: 60.4 x10_2/uL

Q: What about the KIDNEY_L (6 h) of the same compound?
A: 0.9 g

Q: What about the KIDNEY_R (6 h) of the same compound?
A: 0.8 g

Q: What about the KIDNEY_TOTAL (6 h) of the same compound?
A: 1.7 g

Q: What about the LIVER (6 h) of the same compound?
A: 8.4 g

Q: And the A/G (6 h)?
A: 0.9

Q: What about the ALP (6 h) of the same compound?
A: 1303.2 IU/L

Q: And the ALT (6 h)?
A: 131 IU/L

Q: What about the AST (6 h) of the same compound?
A: 226.6 IU/L

Q: And the BUN (6 h)?
A: 12.2 mg/dL

Q: What about the CRE (6 h) of the same compound?
A: 0.2 mg/dL

Q: And the Ca (6 h)?
A: 10.3 mg/dL

Q: And the Cl (6 h)?
A: 107.8 meq/L

Q: What about the DBIL (6 h) of the same compound?
A: 0.02 mg/dL

Q: And the GLC (6 h)?
A: 159.4 mg/dL

Q: What about the IP (6 h) of the same compound?
A: 8.2 mg/dL

Q: And the K (6 h)?
A: 3.7 meq/L

Q: And the LDH (6 h)?
A: 316.4 IU/L

Q: What about the Na (6 h) of the same compound?
A: 142.8 meq/L

Q: What about the PL (6 h) of the same compound?
A: 125.6 mg/dL

Q: What about the RALB (6 h) of the same compound?
A: 2.3 g/dL

Q: And the TBIL (6 h)?
A: 0.072 mg/dL

Q: And the TC (6 h)?
A: 68.8 mg/dL

Q: What about the TG (6 h) of the same compound?
A: 17.8 mg/dL

Q: And the TP (6 h)?
A: 5 g/dL

Q: What about the gamma-GTP (6 h) of the same compound?
A: 1 IU/L

Q: And the TERMINAL_BW (9 h)?
A: 182.7 g

Q: What about the APTT (9 h) of the same compound?
A: 18.9 s

Q: What about the Bas (9 h) of the same compound?
A: 0%

Q: And the Eos (9 h)?
A: 0.8%

Q: And the Fbg (9 h)?
A: 289.2 mg/dL

Q: What about the Hb (9 h) of the same compound?
A: 13.2 g/dL

Q: And the Ht (9 h)?
A: 40.3%

Q: What about the Lym (9 h) of the same compound?
A: 68%

Q: And the MCH (9 h)?
A: 21.1 pg

Q: What about the MCHC (9 h) of the same compound?
A: 32.7%

Q: And the MCV (9 h)?
A: 64.6 fL

Q: What about the Mono (9 h) of the same compound?
A: 2.2%

Q: What about the Neu (9 h) of the same compound?
A: 28.2%

Q: And the PT (9 h)?
A: 17.4 s

Q: What about the Plat (9 h) of the same compound?
A: 108.7 x10_4/uL

Q: And the RBC (9 h)?
A: 624.8 x10_4/ul

Q: And the Ret (9 h)?
A: 9.7%

Q: And the WBC (9 h)?
A: 63.8 x10_2/uL

Q: What about the KIDNEY_L (9 h) of the same compound?
A: 0.8 g

Q: And the KIDNEY_R (9 h)?
A: 0.8 g

Q: What about the KIDNEY_TOTAL (9 h) of the same compound?
A: 1.6 g

Q: And the LIVER (9 h)?
A: 7.5 g

Q: What about the A/G (9 h) of the same compound?
A: 0.9

Q: What about the ALP (9 h) of the same compound?
A: 1707.4 IU/L

Q: What about the ALT (9 h) of the same compound?
A: 72.2 IU/L

Q: What about the AST (9 h) of the same compound?
A: 136.6 IU/L

Q: What about the BUN (9 h) of the same compound?
A: 9.4 mg/dL

Q: And the CRE (9 h)?
A: 0.2 mg/dL

Q: And the Ca (9 h)?
A: 10.3 mg/dL

Q: What about the Cl (9 h) of the same compound?
A: 108.8 meq/L

Q: What about the DBIL (9 h) of the same compound?
A: 0.016 mg/dL

Q: And the GLC (9 h)?
A: 159.6 mg/dL

Q: And the IP (9 h)?
A: 9.9 mg/dL

Q: And the K (9 h)?
A: 3.9 meq/L

Q: And the LDH (9 h)?
A: 111.4 IU/L

Q: What about the Na (9 h) of the same compound?
A: 143.2 meq/L

Q: What about the PL (9 h) of the same compound?
A: 142.2 mg/dL

Q: What about the RALB (9 h) of the same compound?
A: 2.5 g/dL

Q: What about the TBIL (9 h) of the same compound?
A: 0.07 mg/dL

Q: What about the TC (9 h) of the same compound?
A: 79.2 mg/dL

Q: What about the TG (9 h) of the same compound?
A: 22 mg/dL

Q: And the TP (9 h)?
A: 5.4 g/dL

Q: And the gamma-GTP (9 h)?
A: 1 IU/L

Q: And the TERMINAL_BW (24 h)?
A: 192.2 g

Q: And the APTT (24 h)?
A: 23.1 s

Q: And the Bas (24 h)?
A: 0.4%

Q: And the Eos (24 h)?
A: 1.2%

Q: What about the Fbg (24 h) of the same compound?
A: 165.4 mg/dL

Q: What about the Hb (24 h) of the same compound?
A: 13.8 g/dL

Q: And the Ht (24 h)?
A: 42.5%

Q: What about the Lym (24 h) of the same compound?
A: 63.2%

Q: And the MCH (24 h)?
A: 21 pg

Q: And the MCHC (24 h)?
A: 32.5%

Q: And the MCV (24 h)?
A: 64.6 fL

Q: What about the Mono (24 h) of the same compound?
A: 4.6%

Q: What about the Neu (24 h) of the same compound?
A: 28.4%

Q: And the PT (24 h)?
A: 33.2 s

Q: And the Plat (24 h)?
A: 109 x10_4/uL

Q: And the RBC (24 h)?
A: 658 x10_4/ul

Q: What about the Ret (24 h) of the same compound?
A: 8.6%

Q: And the WBC (24 h)?
A: 78.4 x10_2/uL

Q: What about the KIDNEY_L (24 h) of the same compound?
A: 0.9 g

Q: What about the KIDNEY_R (24 h) of the same compound?
A: 0.9 g

Q: And the KIDNEY_TOTAL (24 h)?
A: 1.8 g

Q: And the LIVER (24 h)?
A: 8.1 g

Q: And the A/G (24 h)?
A: 0.9

Q: What about the ALP (24 h) of the same compound?
A: 2378 IU/L

Q: What about the ALT (24 h) of the same compound?
A: 313.8 IU/L

Q: And the AST (24 h)?
A: 571.6 IU/L

Q: What about the BUN (24 h) of the same compound?
A: 12.6 mg/dL

Q: And the CRE (24 h)?
A: 0.2 mg/dL

Q: And the Ca (24 h)?
A: 10.3 mg/dL

Q: And the Cl (24 h)?
A: 106.2 meq/L

Q: What about the DBIL (24 h) of the same compound?
A: 0.2 mg/dL

Q: And the GLC (24 h)?
A: 147.6 mg/dL

Q: And the IP (24 h)?
A: 9.3 mg/dL

Q: What about the K (24 h) of the same compound?
A: 4.2 meq/L

Q: And the LDH (24 h)?
A: 727.6 IU/L

Q: What about the Na (24 h) of the same compound?
A: 143.2 meq/L

Q: What about the PL (24 h) of the same compound?
A: 99.6 mg/dL

Q: What about the RALB (24 h) of the same compound?
A: 2.3 g/dL

Q: And the TBIL (24 h)?
A: 0.3 mg/dL

Q: What about the TC (24 h) of the same compound?
A: 51.6 mg/dL

Q: And the TG (24 h)?
A: 25.2 mg/dL

Q: And the TP (24 h)?
A: 4.9 g/dL

Q: And the gamma-GTP (24 h)?
A: 1.2 IU/L
